Results taken from patent publication US9708308B2, “Factor IXa inhibitors” (Merck Sharp & Dohme Corp., priority 2012, dated 2017).

These compounds were tested against Factor IXa (Homo sapiens, UniProt P00740) (assay: Determination of inhibitory activity against Factor IXa (cleavage of fluorescent peptide substrate)). Conditions: cleavage of fluorescent peptide CH3SO2-D-CHG-Gly-Arg-AFC, release of AFC; read-out: FIXa IC50.
Format: biochemical
How it was run: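 Factor IXa activity followed via cleavage of CH3SO2-D-CHG-Gly-Arg-AFC, releasing AFC. Fluorescence read at excitation 405 nm, emission 510 nm.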

Sequence of Factor IXa (P00740 227-461 limits assumed): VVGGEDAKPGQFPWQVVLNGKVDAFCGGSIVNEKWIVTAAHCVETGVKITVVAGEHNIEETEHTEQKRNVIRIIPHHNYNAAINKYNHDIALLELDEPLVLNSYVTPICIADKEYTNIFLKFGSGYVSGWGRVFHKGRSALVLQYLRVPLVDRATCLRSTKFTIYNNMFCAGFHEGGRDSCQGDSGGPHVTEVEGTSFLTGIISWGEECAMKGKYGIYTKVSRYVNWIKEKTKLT
Sequence of Factor IXa (P00740 47-191 partner limits assumed): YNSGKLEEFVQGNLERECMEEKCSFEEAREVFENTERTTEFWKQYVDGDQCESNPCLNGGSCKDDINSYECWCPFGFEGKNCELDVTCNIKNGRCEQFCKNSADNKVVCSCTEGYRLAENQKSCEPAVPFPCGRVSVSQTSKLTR

| IC50 [nM] | SMILES |
| --- | --- |
| 368 | C[C@](O)(C(=O)Nc1ccc2c(N)noc2c1)[C@H]1OCCN(c2cc3n(n2)CCC3)C1=O [Example 71, (R)—N-(3-aminobenzo[d]isoxazol-6-yl)-2-((R)-4-(5,6-dihydro-4H-pyrrolo[1,2-b]pyrazol-2-yl)-3-oxomorpholin-2-yl)-2-hydroxypropanamide] |
| 12.9 | C[C@]1([C@@H](O)C(=O)Nc2ccc3c(N)noc3c2)OCCN(c2cccc(C(F)(F)F)n2)C1=O [Example 72, (R)—N-(3-Aminobenzo[d]isoxazol-6-yl)-2-hydroxy-2-((R)-2-methyl-3-oxo-4-(6-(trifluoromethyl)pyridin-2-yl)morpholin-2-yl)acetamide] |
| 66.1 | C[C@]1([C@@H](O)C(=O)Nc2ccc3c(N)noc3c2)OCCN(c2ccn(-c3ccnc(C#N)c3)n2)C1=O [Example 73, (R)—N-(3-Aminobenzo[d]isoxazol-6-yl)-2-((R)-4-(1-(2-cyanopyridin-4-yl)-1H-pyrazol-3-yl)-2-methyl-3-oxomorpholin-2-yl)-2-hydroxyacetamide] |
| 408 | CC[C@]1([C@@H](O)C(=O)Nc2ccc3c(N)noc3c2)OCCN(c2cccc(C(F)(F)F)n2)C1=O [Example 74, (R)—N-(3-Aminobenzo[d]isoxazol-6-yl)-2-((R)-2-ethyl-3-oxo-4-(6-(trifluoromethyl)pyridin-2-yl)morpholin-2-yl)-2-hydroxyacetamide] |
| 11.1 | C[C@]1([C@@H](O)C(=O)Nc2ccc3c(N)noc3c2)OCCN(c2ccn(-c3ccc(=O)n(C(F)F)c3)n2)C1=O [Example 76, (R)—N-(3-Aminobenzo[d]isoxazol-6-yl)-2-((R)-4-(1-(1-(difluoromethyl)-6-oxo-1,6-dihydropyridin-3-yl)-1H-pyrazol-3-yl)-2-methyl-3-oxomorpholin-2-yl)-2-hydroxyacetamide] |
| 26.5 | Cc1cc(N2CCO[C@](C)([C@@H](O)C(=O)Nc3ccc4c(N)noc4c3)C2=O)nn1-c1ccc(=O)n(C(F)F)c1 [Example 77, (R)—N-(3-Aminobenzo[d]isoxazol-6-yl)-2-((R)-4-(1-(1-(difluoromethyl)-6-oxo-1,6-dihydropyridin-3-yl)-5-methyl-1H-pyrazol-3-yl)-2-methyl-3-oxomorpholin-2-yl)-2-hydroxyacetamide] |
| 25.6 | C[C@]1([C@@H](O)C(=O)Nc2ccc3c(N)noc3c2)OCCN(c2nn(-c3ccc(=O)n(C(F)F)c3)cc2F)C1=O [Example 78, (R)—N-(3-Aminobenzo[d]isoxazol-6-yl)-2-((R)-4-(1-(1-(difluoromethyl)-6-oxo-1,6-dihydropyridin-3-yl)-4-fluoro-1H-pyrazol-3-yl)-2-methyl-3-oxomorpholin-2-yl)-2-hydroxyacetamide] |
| 170 | C[C@]1([C@@H](O)C(=O)Nc2ccc3c(N)noc3c2)OCCN(c2ccn(-c3ccc(F)cc3)n2)C1=O [Example 79, (R)—N-(3-aminobenzo[d]isoxazol-6-yl)-2-((R)-4-(1-(4-fluorophenyl)-1H-pyrazol-3-yl)-2-methyl-3-oxomorpholin-2-yl)-2-hydroxyacetamide] |
| 25.3 | C[C@]1([C@@H](O)C(=O)Nc2ccc3c(N)noc3c2)OCCN(c2ccn(-c3ccc(C#N)cc3)n2)C1=O [Example 80, (R)—N-(3-aminobenzo[d]isoxazol-6-yl)-2-((R)-4-(1-(4-cyanophenyl)-1H-pyrazol-3-yl)-2-methyl-3-oxomorpholin-2-yl)-2-hydroxyacetamide] |
| 418 | COC(=O)c1ccc(-n2ccc(N3CCO[C@](C)([C@@H](O)C(=O)Nc4ccc5c(N)noc5c4)C3=O)n2)cc1 [Example 81, methyl 4-(3-((R)-2-((R)-2-((3-aminobenzo[d]isoxazol-6-yl)amino)-1-hydroxy-2-oxoethyl)-2-methyl-3-oxomorpholino)-1H-pyrazol-1-yl)benzoate] |
| 32.8 | C[C@]1([C@@H](O)C(=O)Nc2ccc3c(N)noc3c2)OCCN(c2ccn(-c3ccc(C(=O)O)cc3)n2)C1=O [Example 82, 4-(3-((R)-2-((R)-2-((3-aminobenzo[d]isoxazol-6-yl)amino)-1-hydroxy-2-oxoethyl)-2-methyl-3-oxomorpholino)-1H-pyrazol-1-yl)benzoic acid] |
| 352 | C[C@]1([C@@H](O)C(=O)Nc2ccc3c(N)noc3c2)OCCN(c2ccn(-c3ccc(Cl)cc3)n2)C1=O [Example 83, (R)—N-(3-aminobenzo[d]isoxazol-6-yl)-2-((R)-4-(1-(4-chlorophenyl)-1H-pyrazol-3-yl)-2-methyl-3-oxomorpholin-2-yl)-2-hydroxyacetamide] |
| 13.2 | C[C@]1([C@@H](O)C(=O)Nc2ccc3c(N)noc3c2)OCCN(c2ccn(-c3ccc(S(C)(=O)=O)cc3)n2)C1=O [Example 84, (R)—N-(3-aminobenzo[d]isoxazol-6-yl)-2-hydroxy-2-((R)-2-methyl-4-(1-(4-(methylsulfonyl)phenyl)-1H-pyrazol-3-yl)-3-oxomorpholin-2-yl)acetamide] |
| 279 | C[C@]1([C@@H](O)C(=O)Nc2ccc3c(N)noc3c2)OCCN(c2ccn(-c3cccnc3)n2)C1=O [Example 85, (R)—N-(3-aminobenzo[d]isoxazol-6-yl)-2-hydroxy-2-((R)-2-methyl-3-oxo-4-(1-(pyridin-3-yl)-1H-pyrazol-3-yl)morpholin-2-yl)acetamide] |
| 414 | C[C@]1([C@@H](O)C(=O)Nc2ccc3c(N)noc3c2)OCCN(c2ccn(-c3ccc(C(F)(F)F)nc3)n2)C1=O [Example 86, (R)—N-(3-aminobenzo[d]isoxazol-6-yl)-2-hydroxy-2-((R)-2-methyl-3-oxo-4-(1-(6-(trifluoromethyl)pyridin-3-yl)-1H-pyrazol-3-yl)morpholin-2-yl)acetamide] |
| 228 | C[C@]1([C@@H](O)C(=O)Nc2ccc3c(N)noc3c2)OCCN(c2ccn(-c3cncc(C(F)(F)F)c3)n2)C1=O [Example 87, (R)—N-(3-aminobenzo[d]isoxazol-6-yl)-2-hydroxy-2-((R)-2-methyl-3-oxo-4-(1-(5-(trifluoromethyl)pyridin-3-yl)-1H-pyrazol-3-yl)morpholin-2-yl)acetamide] |
| 950 | C[C@]1([C@@H](O)C(=O)Nc2ccc3c(N)noc3c2)OCCN(c2ccn(-c3cncc(C#N)c3)n2)C1=O [Example 88, (R)—N-(3-aminobenzo[d]isoxazol-6-yl)-2-((R)-4-(1-(5-cyanopyridin-3-yl)-1H-pyrazol-3-yl)-2-methyl-3-oxomorpholin-2-yl)-2-hydroxyacetamide] |
| 1060 | C[C@]1([C@@H](O)C(=O)Nc2ccc3c(N)noc3c2)OCCN(c2ccn(-c3ccncc3)n2)C1=O [Example 89, (R)—N-(3-aminobenzo[d]isoxazol-6-yl)-2-hydroxy-2-((R)-2-methyl-3-oxo-4-(1-(pyridin-4-yl)-1H-pyrazol-3-yl)morpholin-2-yl)acetamide] |
| 23.5 | C[C@]1([C@@H](O)C(=O)Nc2ccc3c(N)noc3c2)OCCN(c2ccn(-c3ccncc3F)n2)C1=O [Example 90, (R)—N-(3-aminobenzo[d]isoxazol-6-yl)-2-((R)-4-(1-(3-fluoropyridin-4-yl)-1H-pyrazol-3-yl)-2-methyl-3-oxomorpholin-2-yl)-2-hydroxyacetamide] |
| 690 | COC(=O)c1cc(-n2ccc(N3CCO[C@](C)([C@@H](O)C(=O)Nc4ccc5c(N)noc5c4)C3=O)n2)ccn1 [Example 91, methyl 4-(3-((R)-2-((R)-2-((3-aminobenzo[d]isoxazol-6-yl)amino)-1-hydroxy-2-oxoethyl)-2-methyl-3-oxomorpholino)-1H-pyrazol-1-yl)picolinate] |
| 106 | COc1cc(-n2ccc(N3CCO[C@](C)([C@@H](O)C(=O)Nc4ccc5c(N)noc5c4)C3=O)n2)ccn1 [Example 92, (R)—N-(3-aminobenzo[d]isoxazol-6-yl)-2-hydroxy-2-((R)-4-(1-(2-methoxypyridin-4-yl)-1H-pyrazol-3-yl)-2-methyl-3-oxomorpholin-2-yl)acetamide] |
| 12.9 | C[C@]1([C@@H](O)C(=O)Nc2ccc3c(N)noc3c2)OCCN(c2ccn(-c3ccnc(C(F)(F)F)c3)n2)C1=O [Example 94, (R)—N-(3-aminobenzo[d]isoxazol-6-yl)-2-hydroxy-2-((R)-2-methyl-3-oxo-4-(1-(2-(trifluoromethyl)pyridin-4-yl)-1H-pyrazol-3-yl)morpholin-2-yl)acetamide] |
| 251 | C[C@]1([C@@H](O)C(=O)Nc2ccc3c(N)noc3c2)OCCN(c2ccn(-c3c(F)cncc3F)n2)C1=O [Example 95, (R)—N-(3-aminobenzo[d]isoxazol-6-yl)-2-((R)-4-(1-(3,5-difluoropyridin-4-yl)-1H-pyrazol-3-yl)-2-methyl-3-oxomorpholin-2-yl)-2-hydroxyacetamide] |
| 49.1 | Cc1cc(N2CCO[C@](C)([C@@H](O)C(=O)Nc3ccc4c(N)noc4c3)C2=O)nn1-c1ccnc(C(F)(F)F)c1 [Example 96, (R)—N-(3-aminobenzo[d]isoxazol-6-yl)-2-hydroxy-2-((R)-2-methyl-4-(5-methyl-1-(2-(trifluoromethyl)pyridin-4-yl)-1H-pyrazol-3-yl)-3-oxomorpholin-2-yl)acetamide] |
| 3.68 | C[C@]1([C@@H](O)C(=O)Nc2ccc3c(N)noc3c2)OCCN(c2ccn(-c3ccnnc3)n2)C1=O [Example 97, (R)—N-(3-aminobenzo[d]isoxazol-6-yl)-2-hydroxy-2-((R)-2-methyl-3-oxo-4-(1-(pyridazin-4-yl)-1H-pyrazol-3-yl)morpholin-2-yl)acetamide] |
| 3.71 | COc1cc(-n2ccc(N3CCO[C@](C)([C@@H](O)C(=O)Nc4ccc5c(N)noc5c4)C3=O)n2)cnn1 [Example 98, (R)—N-(3-aminobenzo[d]isoxazol-6-yl)-2-hydroxy-2-((R)-4-(1-(6-methoxypyridazin-4-yl)-1H-pyrazol-3-yl)-2-methyl-3-oxomorpholin-2-yl)acetamide] |
| 3.7 | [2H]C([2H])([2H])Oc1cc(-n2ccc(N3CCO[C@](C)([C@@H](O)C(=O)Nc4ccc5c(N)noc5c4)C3=O)n2)cnn1 [Example 99, (2R)—N-(3-amino-1,2-benzoxazol-6-yl)-2-hydroxy-2-[(2R)-2-methyl-3-oxo-4-[1-[6-(trideuteriomethoxy)pyridazin-4-yl]pyrazol-3-yl]morpholin-2-yl]acetamide] |
